Common to all, as to assay type: functional, cell-based
The test system of one assay is NCI-H460. Kind of assay: Antiproliferative activity against human NCI-H460 cells assessed as inhibition of cell growth incubated for 24 to 72 hrs by CCK8 assay.
The test system of another assay is HepG2. The assay can be described thus: Antiproliferative activity against human HepG2 cells assessed as inhibition of cell growth incubated for 24 to 72 hrs by CCK8 assay.
In a further assay the test system is A549. The assay can be described thus: Antiproliferative activity against human A549 cells assessed as inhibition of cell growth incubated for 24 to 72 hrs by CCK8 assay. (In general: Tetrazolium assays rely on reduction of a dye to a coloured formazan, in cell work by metabolically active cells.)

Here are results for twelve molecules from ChEMBL document CHEMBL5576041, “13-oxyingenol dodecanoate derivatives induce mitophagy and ferroptosis through targeting TMBIM6 as potential anti-NSCLC agents” (Eur J Med Chem, 2024).

For the molecule `CCCCCCCCCCCC(=O)O[C@@]12C[C@@H](C)[C@]34C=C(C)[C@H](OC(=O)NCCCCC)[C@@]3(O)[C@H](O)C(CO)=C[C@H](C4=O)[C@@H]1C2(C)C`, the IC50 (in general, the concentration at which inhibition is half-maximal) in the assay on NCI-H460 is 5.4 µM; in the assay on HepG2, 1.7 µM; with A549, 32.8 µM.

As for `CCCCCCCCCCCC(=O)O[C@@]12C[C@@H](C)[C@]34C=C(C)[C@H](O)[C@@]3(O)[C@H](O)C(COC(=O)c3ccc(F)cc3)=C[C@H](C4=O)[C@@H]1C2(C)C`, the IC50 with NCI-H460 worked out at 4.5 µM; in the assay on HepG2 it was 7.6 µM; in the assay with A549 it was 21.2 µM.

`CCCCCCCCCCCC(=O)O[C@@]12C[C@@H](C)[C@]34C=C(C)[C@H](O)[C@@]3(O)[C@H](O)C(COC(=O)c3ccc([N+](=O)[O-])cc3)=C[C@H](C4=O)[C@@H]1C2(C)C`: the results for the IC50 in the assay on NCI-H460, in the assay with HepG2 and with A549 were 2.6 µM, 15.5 µM and 12.8 µM, respectively.

For `CCCCCCCCCCCC(=O)O[C@@]12C[C@@H](C)[C@]34C=C(C)[C@H](OC(=O)NCCCC)[C@@]3(O)[C@H](O)C(CO)=C[C@H](C4=O)[C@@H]1C2(C)C`, the IC50 is 9.7 µM with NCI-H460, 10.3 µM in the assay on HepG2 and 25.6 µM in the assay on A549.

For the molecule `CCCCCCCCCCCC(=O)O[C@@]12C[C@@H](C)[C@]34C=C(C)[C@H](OC(=O)NCc5ccc(F)cc5)[C@@]3(O)[C@H](O)C(CO)=C[C@H](C4=O)[C@@H]1C2(C)C`, the results for the IC50 in the assay on NCI-H460, with HepG2 and in the assay on A549 were 11.8 µM, 10.9 µM and 9.4 µM, respectively.

For the molecule `CCCCCCCCCCCC(=O)O[C@@]12C[C@@H](C)[C@]34C=C(C)[C@H](OCC)[C@@]3(O)[C@H](O)C(CO)=C[C@H](C4=O)[C@@H]1C2(C)C`, the values for the IC50 in the assay on NCI-H460, in the assay on HepG2 and in the assay with A549 were 45.8 µM, 13.6 µM and 27.2 µM, respectively.

For `CCCCCCCCCCCC(=O)O[C@@]12C[C@@H](C)[C@]34C=C(C)[C@H](OCc5ccccc5)[C@@]3(O)[C@H](O)C(CO)=C[C@H](C4=O)[C@@H]1C2(C)C`, the IC50 in the assay with NCI-H460 was found to be 23.5 µM; in the assay on HepG2, 8.8 µM; with A549, 16.2 µM.

As to `CCCCCCCCCCCC(=O)O[C@@]12C[C@@H](C)[C@]34C=C(C)[C@H](OC(=O)c5ccc(F)cc5)[C@@]3(O)[C@H](O)C(COC(=O)c3ccc(F)cc3)=C[C@H](C4=O)[C@@H]1C2(C)C`, the figures for the IC50 with NCI-H460, in the assay with HepG2 and in the assay on A549 were 5.4 µM, more than 50 µM and 12.5 µM, respectively.

Regarding `CCCCCCCCCCCC(=O)O[C@@]12C[C@@H](C)[C@]34C=C(C)[C@H](OC(=O)c5ccc(Br)cc5)[C@@]3(O)[C@H](O)C(CO)=C[C@H](C4=O)[C@@H]1C2(C)C`, the IC50 with NCI-H460 is 7.9 µM; in the assay on HepG2, more than 50 µM; in the assay with A549, 10 µM.

Take `CCCCCCCCCCCC(=O)O[C@@]12C[C@@H](C)[C@]34C=C(C)[C@H](OC(=O)NC5CCCC5)[C@@]3(O)[C@H](O)C(CO)=C[C@H](C4=O)[C@@H]1C2(C)C`: the IC50 in the assay on NCI-H460 was 17.9 µM; in the assay on HepG2, 8.7 µM; in the assay on A549 it was 11.9 µM.

As for `CCCCCCCCCCCC(=O)O[C@@]12C[C@@H](C)[C@]34C=C(C)[C@H](OC(=O)NCCCCCCCC)[C@@]3(O)[C@H](O)C(CO)=C[C@H](C4=O)[C@@H]1C2(C)C`, the IC50 in the assay on NCI-H460 was 14.3 µM; in the assay with A549, 19.1 µM.

With `C/C=C(/C)C(=O)O[C@H]1C(C)=C[C@]23C(=O)[C@@H](C=C(CO)[C@@H](O)[C@]12O)[C@H]1[C@@H](C[C@H]3C)C1(C)C` [INGENOL MEBUTATE], the half-inhibitory concentration (IC50) in the assay with NCI-H460, with HepG2 and in the assay on A549 was more than 50 µM throughout.
